Results reported in patent US5100914A, “Arylalkoxycoumarins” (BASF Aktiengesellschaft, priority 1988, dated 1992).

What was measured:
[1] = J. Agric. Food Chem. 34 (2), 185-188; cited from earlier work
MAO B = target: T1, MAO B (Rattus norvegicus, UniProt P19643); test: determination of monoaminooxidase B inhibition in dilute rat brain homogenate; type: biochemical; conditions: 20 min; for IC50: 14C-phenylethylamine or 14C-tryptamine 0.4 μmol/l, 37° C., logit-log regression, read-out: IC50 MAO B (mean inhibitory concentration); for MAO B selectivity (IC50 MAO A / IC50 MAO B): selectivity ratio from the two IC50 values
T1 construct: carried out in dilute rat brain homogenate; from tissue; host or cells: rat brain homogenate
T1 sequence (P19643 1-520): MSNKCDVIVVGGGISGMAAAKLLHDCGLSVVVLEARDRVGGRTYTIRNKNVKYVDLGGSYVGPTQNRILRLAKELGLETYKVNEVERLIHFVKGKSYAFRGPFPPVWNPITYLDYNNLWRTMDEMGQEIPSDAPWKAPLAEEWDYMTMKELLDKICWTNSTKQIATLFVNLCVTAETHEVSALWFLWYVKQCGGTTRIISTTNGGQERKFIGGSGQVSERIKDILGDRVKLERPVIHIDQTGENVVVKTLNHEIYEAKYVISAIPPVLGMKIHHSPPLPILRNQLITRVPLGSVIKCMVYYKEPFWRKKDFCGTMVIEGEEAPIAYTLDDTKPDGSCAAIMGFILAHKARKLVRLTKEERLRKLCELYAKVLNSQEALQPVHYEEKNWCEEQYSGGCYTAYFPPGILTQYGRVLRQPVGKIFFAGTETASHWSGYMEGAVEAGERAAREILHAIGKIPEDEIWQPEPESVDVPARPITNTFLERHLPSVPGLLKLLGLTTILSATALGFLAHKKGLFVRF
Description: (§1) The MAO-inhibiting activity of the novel compounds can be determined using standard methods. […] This mixture was incubated for 20 minutes at 37° C. […] The blank value was determined in similar mixtures with an incubation time of t =0 min.
(§2) From the inhibitory values determined at the various inhibitor concentrations against the controls, the mean inhibitory concentration (IC50) was calculated by linear regression following logit-log transformation.

MAO A = target: T2, MAO A (Rattus norvegicus, UniProt P21396); test: determination of monoaminooxidase A inhibition in dilute rat brain homogenate; type: biochemical; conditions: 14C-phenylethylamine or 14C-tryptamine 0.4 μmol/l, 20 min, 37° C., logit-log regression, read-out: IC50 MAO A (mean inhibitory concentration)
T2 construct: carried out in dilute rat brain homogenate; from tissue; host or cells: rat brain homogenate
T2 sequence (P21396 1-526): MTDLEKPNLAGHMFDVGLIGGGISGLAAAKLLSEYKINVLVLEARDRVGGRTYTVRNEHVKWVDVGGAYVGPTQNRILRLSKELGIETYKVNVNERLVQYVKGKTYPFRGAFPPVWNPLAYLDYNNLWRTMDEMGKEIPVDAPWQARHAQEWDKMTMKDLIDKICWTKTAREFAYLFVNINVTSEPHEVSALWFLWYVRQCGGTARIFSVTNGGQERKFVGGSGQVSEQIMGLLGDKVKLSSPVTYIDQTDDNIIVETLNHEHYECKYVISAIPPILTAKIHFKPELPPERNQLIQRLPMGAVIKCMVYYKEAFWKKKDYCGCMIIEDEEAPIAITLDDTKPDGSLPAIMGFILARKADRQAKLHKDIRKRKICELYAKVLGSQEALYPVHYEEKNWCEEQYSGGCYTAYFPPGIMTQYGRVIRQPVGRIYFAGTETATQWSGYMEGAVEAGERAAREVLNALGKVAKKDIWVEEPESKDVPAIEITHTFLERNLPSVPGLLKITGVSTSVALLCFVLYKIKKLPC
Description: as §1, §2

Compound | IC50 (MAO B) [nM] | MAO B selectivity (IC50 MAO A / IC50 MAO B) (MAO B) | IC50 (MAO A) [nM] | fungicidal activity [1]
Cc1cc(=O)oc2cc(OCc3c(F)c(F)c(F)c(F)c3F)ccc12 [7-pentafluorophenylmethoxy-4-methylcoumarin] | – | – | – | has fungicidal activity
CCc1cc2c(C)c(C)c(=O)oc2cc1OCCc1ccccc1 [Example 23, 6-Ethyl-3,4-dimethyl-7-(2-phenyl)-ethoxycoumarin] | 13 | > 770 | > 10000 | –
CC(C)c1ccc(COc2ccc3ccc(=O)oc3c2)cc1 [Example 26, 7-(4-Isopropylphenyl)-methoxycoumarin] | 1.8 | > 5600 | > 10000 | –
Cc1cc(=O)oc2cc(OCc3ccc(C(C)C)cc3)ccc12 [Example 27, 4-Methyl-7-(4-isopropylphenyl)-methoxycoumarin] | 4.7 | > 2100 | > 10000 | –
Cc1cc2ccc(OCc3ccc(C(C)C)cc3)cc2oc1=O [Example 28, 3-Methyl-7-(4-isopropylphenyl)-methoxycoumarin] | 2.8 | > 3600 | > 10000 | –

Further lines, with some results ahead:

IC50 (MAO B) [nM] | MAO B selectivity (IC50 MAO A / IC50 MAO B) (MAO B) | IC50 (MAO A) [nM] | Compound | fungicidal activity [1]
11 | > 900 | > 10000 | Cc1c(C)c2ccc(OCc3ccc4ccccc4c3)cc2oc1=O [Example 4, 3,4-Dimethyl-7-(2-naphthyl)-methoxycoumarin] | –
3.7 | > 2700 | > 10000 | Cc1ccc(C)c(COc2ccc3c(C)c(C)c(=O)oc3c2)c1 [Example 10, 3,4-Dimethyl-7-(2,5-dimethylphenyl)-methoxycoumarin] | –
4.3 | > 2400 | > 10000 | Cc1c(Cl)c(=O)oc2cc(OCc3ccc(C(C)C)cc3)ccc12 [Example 33, 3-Chloro-4-methyl-7-(4-isopropylphenyl)-methoxycoumarin] | –
4.2 | 280 | 1200 | Cc1c(C)c2ccc(OCCCc3ccccc3)cc2oc1=O [Example 35, 3,4-Dimethyl-7-(3-phenylpropoxy)-coumarin] | –
31 | > 320 | > 10000 | Cc1c(C)c2cc(Cl)c(OCc3ccc(C(C)C)cc3)cc2oc1=O [Example 38, 6-Chloro-3,4-dimethyl-7-(4-isopropylphenyl)-methoxycoumarin] | –
